Consider 19 compounds from ChEMBL document CHEMBL1132409, “Pharmacological treatment of obesity: therapeutic strategies” (J Med Chem, 1999).

Each structure is given as a SMILES string.

The nature of data set [1]: Oral bioavailability of the compound. Particulars: in vivo. Format: ADME, organism-based.
The target of data set [2] is T1, Beta-3 adrenergic receptor (Homo sapiens, UniProt P13945). The data set is described as follows: Binding affinity towards Beta-3 adrenergic receptor.
Target sequence in this assay (P13945 whole entry): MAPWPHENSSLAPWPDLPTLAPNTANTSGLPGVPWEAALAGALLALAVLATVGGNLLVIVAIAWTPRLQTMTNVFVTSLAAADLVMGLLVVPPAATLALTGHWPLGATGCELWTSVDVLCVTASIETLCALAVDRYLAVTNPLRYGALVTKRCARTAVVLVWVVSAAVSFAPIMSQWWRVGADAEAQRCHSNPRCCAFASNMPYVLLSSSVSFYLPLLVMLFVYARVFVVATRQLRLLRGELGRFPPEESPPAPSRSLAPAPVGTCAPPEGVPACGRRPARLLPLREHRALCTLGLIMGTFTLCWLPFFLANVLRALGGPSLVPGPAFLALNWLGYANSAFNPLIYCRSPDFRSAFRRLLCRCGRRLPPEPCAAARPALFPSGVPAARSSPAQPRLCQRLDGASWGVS
Data set [3] deals with T1, Beta-3 adrenergic receptor. The data set is described as follows: Beta-3 adrenergic receptor intrinsic activity relative to isoproterenol.
Target sequence in this assay (P13945 whole entry, looked up): as the sequence (P13945 whole entry) above
The target in data set [4] is T2, Neuropeptide Y receptor type 1 (Homo sapiens, UniProt P25929).
T2 sequence (P25929 whole entry): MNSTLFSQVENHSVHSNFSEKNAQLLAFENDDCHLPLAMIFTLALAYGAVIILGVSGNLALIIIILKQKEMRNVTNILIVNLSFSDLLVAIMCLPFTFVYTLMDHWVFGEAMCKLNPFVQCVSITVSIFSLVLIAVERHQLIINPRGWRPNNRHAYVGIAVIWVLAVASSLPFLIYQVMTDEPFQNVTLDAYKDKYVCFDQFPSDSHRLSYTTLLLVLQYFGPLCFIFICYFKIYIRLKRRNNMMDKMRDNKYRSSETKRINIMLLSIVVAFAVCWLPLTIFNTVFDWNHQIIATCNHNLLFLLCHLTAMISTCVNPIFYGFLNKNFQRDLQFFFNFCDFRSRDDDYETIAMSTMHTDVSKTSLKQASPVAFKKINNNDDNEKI
The data set is described as follows: The compound was tested for the binding affinity against Neuropeptide Y receptor type 1.

Data set [5] addresses T3, Neuropeptide Y receptor type 5 (Rattus norvegicus, UniProt Q63634).
T3 sequence (Q63634 whole entry): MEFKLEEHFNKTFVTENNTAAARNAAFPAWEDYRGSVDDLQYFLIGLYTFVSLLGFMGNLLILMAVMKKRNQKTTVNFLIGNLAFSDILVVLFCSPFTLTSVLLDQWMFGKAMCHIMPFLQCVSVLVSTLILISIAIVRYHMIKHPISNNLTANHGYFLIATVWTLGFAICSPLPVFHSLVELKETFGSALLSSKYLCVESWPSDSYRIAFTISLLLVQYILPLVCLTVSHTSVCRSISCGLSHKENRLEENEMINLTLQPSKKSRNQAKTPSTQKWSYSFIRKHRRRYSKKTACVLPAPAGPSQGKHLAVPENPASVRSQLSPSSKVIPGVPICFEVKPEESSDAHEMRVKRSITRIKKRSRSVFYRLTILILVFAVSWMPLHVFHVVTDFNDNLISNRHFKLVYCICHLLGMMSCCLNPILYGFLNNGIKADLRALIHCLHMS
The data set is described as follows: The compound was tested for the binding affinity against Neuropeptide Y receptor type 5 in rat.

Data set [6] has as its target T1, Beta-3 adrenergic receptor. The data set is described as follows: Binding affinity towards human Beta-3 adrenergic receptor.
Target sequence in this assay (P13945 whole entry): as the sequence (P13945 whole entry) above
Data set [7] is described as follows: Bioavailability in rat. Format: ADME, organism-based. Particulars: in vivo, read-out: Bioavailabiility.
Data set [8] in a line: Bioavailability in dog. The settings on record: in vivo. Format: ADME, organism-based, Canis lupus familiaris.
Data set [9] deals with Rhesus monkey. The data set is described as follows: Effective dose to stimulate lipolysis in Rhesus monkeys(iv). Format: functional, Cercopithecidae. Particulars: Macaca mulatta.
For data set [10], the target named is T4, Cholecystokinin receptor type A (Mus musculus, UniProt O08786).
T4 sequence (O08786 whole entry): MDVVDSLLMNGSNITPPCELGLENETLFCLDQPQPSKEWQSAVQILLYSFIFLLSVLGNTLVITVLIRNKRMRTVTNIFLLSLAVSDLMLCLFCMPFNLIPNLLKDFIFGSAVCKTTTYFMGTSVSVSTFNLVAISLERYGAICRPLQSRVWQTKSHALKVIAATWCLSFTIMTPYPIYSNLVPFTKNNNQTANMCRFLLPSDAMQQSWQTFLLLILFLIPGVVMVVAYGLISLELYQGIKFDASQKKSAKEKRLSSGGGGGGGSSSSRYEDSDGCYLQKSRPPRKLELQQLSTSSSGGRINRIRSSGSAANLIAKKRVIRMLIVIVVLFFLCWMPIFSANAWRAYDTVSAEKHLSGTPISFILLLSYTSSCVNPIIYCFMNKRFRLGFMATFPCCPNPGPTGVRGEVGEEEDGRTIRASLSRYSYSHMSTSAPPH
The data set is described as follows: Binding affinity in Cholecystokinin type A receptor binding assay […].

Data set [11] concerns the target T5, Neuropeptide Y receptor type 1 (Rattus norvegicus, UniProt P21555).
T5 sequence (P21555 whole entry): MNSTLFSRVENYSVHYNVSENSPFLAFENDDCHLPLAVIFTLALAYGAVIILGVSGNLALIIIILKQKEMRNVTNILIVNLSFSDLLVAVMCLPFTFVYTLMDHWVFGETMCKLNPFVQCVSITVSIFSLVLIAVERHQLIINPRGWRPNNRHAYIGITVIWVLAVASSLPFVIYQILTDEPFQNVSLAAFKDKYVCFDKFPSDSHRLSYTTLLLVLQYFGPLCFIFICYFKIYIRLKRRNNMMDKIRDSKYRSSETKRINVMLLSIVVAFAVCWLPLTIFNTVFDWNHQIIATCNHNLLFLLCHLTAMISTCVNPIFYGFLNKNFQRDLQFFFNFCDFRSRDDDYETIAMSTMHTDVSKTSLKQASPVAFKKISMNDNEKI
The data set is described as follows: The compound was tested for the binding affinity against NPY1 (Neuropeptide Y receptor type 1).

Data set [12] addresses Neuropeptide Y receptor type 4 (Rattus norvegicus, UniProt Q63447). The data set is described as follows: The compound was tested for the binding affinity against Neuropeptide Y receptor type 4.
Data set [13] concerns the target T6, Neuropeptide Y receptor type 2 (Rattus norvegicus, UniProt Q9ERC0).
T6 sequence (Q9ERC0 whole entry): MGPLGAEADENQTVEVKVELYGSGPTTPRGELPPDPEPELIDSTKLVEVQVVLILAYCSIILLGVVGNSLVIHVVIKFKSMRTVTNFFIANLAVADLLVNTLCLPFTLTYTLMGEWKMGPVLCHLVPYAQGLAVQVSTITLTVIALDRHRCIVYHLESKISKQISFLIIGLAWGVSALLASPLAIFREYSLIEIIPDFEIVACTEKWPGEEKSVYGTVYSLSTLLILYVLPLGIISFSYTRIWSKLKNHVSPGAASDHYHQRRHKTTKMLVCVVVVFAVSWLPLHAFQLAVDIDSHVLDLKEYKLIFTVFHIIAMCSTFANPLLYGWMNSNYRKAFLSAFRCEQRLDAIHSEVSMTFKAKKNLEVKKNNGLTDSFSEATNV
The data set is described as follows: The compound was tested for the binding affinity against Neuropeptide Y receptor type 2.

Data set [14] deals with T5, Neuropeptide Y receptor type 1. The data set is described as follows: The compound was tested for the binding affinity against Neuropeptide Y receptor type 1 in rat.
The nature of data set [15]: Oral bioavailability in rat. Particulars: in vivo. It counts as ADME, organism-based.
The subject of data set [16] is Rhesus monkey. The data set is described as follows: Effective dose to stimulate lipolysis in Rhesus monkeys (iv). Format: functional, Cercopithecidae. The settings on record: Macaca mulatta.
The subject of the next data set is Rattus norvegicus. The data set is described as follows: Ability to inhibit the food intake of Sprague-Dawley rats at 30 mg/kg after intraperitoneal administration. It counts as functional. The settings on record: ip.
The nature of data set [17]: Bioavailability in dogs. Format: ADME, organism-based, Canis lupus familiaris. The settings on record: dog, in vivo; read-out: Bioavailabiility.

Sequence of Neuropeptide Y receptor type 4 (Q63447 whole entry): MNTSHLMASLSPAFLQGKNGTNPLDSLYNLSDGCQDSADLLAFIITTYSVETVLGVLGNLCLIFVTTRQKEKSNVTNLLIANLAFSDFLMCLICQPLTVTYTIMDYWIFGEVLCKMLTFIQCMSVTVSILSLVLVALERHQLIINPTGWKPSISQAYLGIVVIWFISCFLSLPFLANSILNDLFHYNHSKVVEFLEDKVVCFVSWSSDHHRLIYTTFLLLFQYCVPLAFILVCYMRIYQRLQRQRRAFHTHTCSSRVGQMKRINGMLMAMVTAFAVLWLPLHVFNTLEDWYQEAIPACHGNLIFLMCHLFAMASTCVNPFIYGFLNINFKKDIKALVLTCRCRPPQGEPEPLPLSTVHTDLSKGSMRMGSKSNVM

Compound `CCCCCCNC(=O)Nc1ccc(S(=O)(=O)Nc2ccc(CCNC[C@H](O)COc3ccc(O)cc3)cc2)cc1` [L-755507] came in with a bioavailability in data set [1] of 1%.

As to `C[C@H](Cc1ccc(OCP(=O)(O)c2ccccc2)cc1)NC[C@H](O)COc1ccc(O)c(NS(C)(=O)=O)c1`, the EC50 in data set [2] was < 300 nM. The Intrinsic activity in [3] is > 80%. As for `CC[C@H]1CC[C@@](c2cccc(OCOC)c2)(N2CCN(c3ccccc3)CC2)CC1`, in data set [4], the IC50 worked out at 39 nM. Turning to `COc1ccc(-c2cc(NC(=O)Cc3ccc4ccccc4c3)[nH]n2)cc1OC`, the IC50 in data set [5] came out at 8.3 nM. As for `Cn1c(C(=O)O)cc2cc(OCCNC[C@H](O)c3ccc(N)nc3)ccc21`, it took 300 nM to reach a half-maximal effect in data set [6] (EC50). The bioavailability in data set [7] is < 10%. Take `CC(C)c1ccc(S(=O)(=O)Nc2ccc(CCNC[C@H](O)COc3ccc(N)nc3)cc2)cc1`: the bioavailability in data set [7] is 4%; in data set [8], 47%. In [8], this compound registered an F of 41%. In data set [5], `COc1ccc(-c2cc(NC(=O)CC34CCCC3Cc3ccccc3C4)[nH]n2)cc1OC` (configuration not stated) showed an IC50 of 2.3 nM.

Consider `CCCCCCP(=O)(O)COc1ccc(C[C@@H](C)NC[C@H](O)COc2ccc(O)c3c2CCC(=O)N3)cc1`, for which the EC50 in data set [2] is < 300 nM. Besides, the Intrinsic activity in [3] is > 80%. As to `O=S(=O)(Nc1ccc(CCNC[C@H](O)COc2cccnc2)cc1)c1ccc(I)cc1` [L-749372], in the data set with Rhesus monkey [9], the 50% effect level (ED50) was put at a dose of 2 mg/kg. In addition, in [8], the bioavailability worked out at 47%. In data set [10], `CCCCNC(=O)[C@@H]1Cc2ccccc2N1C(=O)CC(N)CC` (some centres not stated) registered an inhibition constant Ki of 7 nM.

In the case of `CC(C)(Cc1ccc(Oc2ccc(C(N)=O)cn2)cc1)NC[C@H](O)COc1cccc2[nH]c(=O)[nH]c12`, a half-maximal response in data set [6] (EC50) required 30 nM. For `CS(=O)(=O)Nc1cc([C@@H](O)CN[C@H](Cc2cccc(Cl)c2)c2ccc(OC(F)F)cc2)ccc1O`, the Ki in [6] came to 9 nM. In the case of `O=C(CN1CCC(n2c(=O)[nH]c3ccccc32)CC1)Nc1ccc2c(c1)-c1ccccc1C2=O`, the IC50 in data set [11], in data set [12] and in data set [13] was > 5000 nM each time. Compound `Clc1ccc(OCc2nc3c(OCCCN4CCCCC4)cccc3n2CCCC2CCCNC2)cc1` (configuration not stated) gave an IC50 in data set [14] of 1.7 nM.

Consider `COc1ccc(N(C(=O)CN2C(=O)C(Cc3n[nH]c4ccccc34)C(=O)N(c3ccccc3)c3ccccc32)C(C)C)cc1` (configuration not stated), for which, in [15], the bioavailability amounted to 8%. `Nc1ccc(OC[C@@H](O)CNCCc2ccc(NS(=O)(=O)c3ccc(I)cc3)cc2)cn1` showed an ED50 with Rhesus monkey [16] of 0.8 mg/kg. Turning to `Cc1cc(N2CCCC2)cc(/C=C/c2cccc(C(F)(F)F)c2)n1`, in data set [5], the half-maximal inhibitory concentration (IC50) turned out to be 4.1 nM. With `CN(C)CCCNc1nc(NC[C@H]2CC[C@H](CNS(=O)(=O)c3cccc4ccccc34)CC2)nc2ccccc12`, at 30 mg/kg the inhibition in vivo in the data set on Rattus norvegicus was 96%. For `O=S(=O)(Nc1ccc(CCNC[C@H](O)c2cccnc2)cc1)c1ccc(I)cc1`, the bioavailability in [17] was 51%.
